Data set [1] can be described thus: Cytotoxicity, MTT method. The method, then:
(§1) Compounds were tested for their antimicrobial activity against […] fungi (Candida albicans, Mucor hiemails, Pichia anomala, Rhodotorula glutinis and Schizosaccharomyces pombe), four different Gram-positive bacteria (Bacillus subtilis, Micrococcus luteus, Mycobacterium smegmatis and Staphylococcus aureus), and three Gram-negative bacteria (Chromobacterium violaceum, Escherichia coli and Pseudomonas aeruginosa), using oxytetracycline as a positive control against Gram-positive and Gram-negative bacteria, while nystatin was used as an antifungal positive control. Besides, cytotoxicities of the compounds against seven mammalian cell lines (human endocervical adenocarcinoma KB 3.1, breast cancer MCF-7, lung cancer A549, ovary cancer SK-OV-3, prostate cancer PC-3, squamous cancer A431, and mouse fibroblasts L929) were determined by the microculture tetrazolium test (MTT) method, using epothilon B as the positive control. Both bioactivity assays were performed following our standard protocols.
In general terms: Tetrazolium dyes change colour on reduction, which living cells bring about.

Data set [2] concerns KB 3.1, L929, A549, SK-OV-3, PC-3, A431, and MCF-7 mammalian cell lines. Put plainly: Cytotoxicity, summary over all tested cell lines. Conditions: seven mammalian cell lines; read-out: IC50 values, range over all tested cell lines. The class given is cell-based. The method, then:
as §1

In data set [3] the test system is Staphylococcus aureus. In words: MIC, antibacterial test. It counts as cell-based. Conditions: read-out: Minimum inhibitory concentration (MIC). The method, then: as §1
The subject of data set [4] is Bacillus subtilis. Put plainly: MIC, antibacterial test. Conditions: read-out: Minimum inhibitory concentration (MIC). The class given is cell-based. The method, then:
as §1

Data set [5] deals with Micrococcus luteus. Put plainly: MIC, antibacterial test. Conditions: read-out: Minimum inhibitory concentration (MIC). It counts as cell-based. The method, then: as §1
Data set [6] deals with Mycobacterium smegmatis. In words: MIC, antibacterial test. Also noted: key: –: no inhibition observed under test conditions. The class given is cell-based. The method, then: as §1
Data set [7] deals with Mucor hiemalis. Put plainly: MIC, antifungal test. It counts as cell-based. Set-up: key to Minimum inhibitory concentration (MIC): –: no inhibition observed under test conditions. As to conditions: for MIC: read-out: Minimum inhibitory concentration (MIC). The method, then:
as §1

Data set [8] relates to Rhodotorula glutinis. In words: MIC, antifungal test. The class given is cell-based. Also noted: key to Minimum inhibitory concentration (MIC): –: no inhibition observed under test conditions. As to conditions: for MIC: read-out: Minimum inhibitory concentration (MIC). The method, then: as §1
Data set [9] concerns Schizosaccharomyces pombe. In words: MIC, antifungal test. The class given is cell-based. Set-up: key to Minimum inhibitory concentration (MIC): –: no inhibition observed under test conditions. The method, then: as §1
In data set [10] the test system is Pichia anomala. In words: MIC, antifungal test. It counts as cell-based. Set-up: key to Minimum inhibitory concentration (MIC): –: no inhibition observed under test conditions. The method, then: as §1
For data set [11], the system named is Candida albicans. Put plainly: MIC, antifungal test. The class given is cell-based. Also noted: key to Minimum inhibitory concentration (MIC): –: no inhibition observed under test conditions. The method, then:
as §1

In data set [12] the test system is Pseudomonas aeruginosa. Put plainly: MIC, antibacterial test. Set-up: key to Minimum inhibitory concentration (MIC): –: no inhibition observed under test conditions. It counts as cell-based. The method, then:
as §1

Data set [13] relates to Chromobacterium violaceum. Put plainly: MIC, antibacterial test. The class given is cell-based. Set-up: key to Minimum inhibitory concentration (MIC): –: no inhibition observed under test conditions. The method, then: as §1
Data set [14] relates to Escherichia coli. Put plainly: MIC, antibacterial test. Set-up: key to Minimum inhibitory concentration (MIC): –: no inhibition observed under test conditions. It counts as cell-based. The method, then:
as §1

Setting [15] is: human, A431 squamous cancer cells.
Setting [16] is: human, KB 3.1 endocervical adenocarcinoma cells.
Setting [17] is: human, MCF-7 breast cancer cells.
Setting [18] is: human, PC-3 prostate cancer cells.
[19] abbreviates: human, SK-OV-3 ovary cancer cells.
The mark [20] stands for this setting: read-out: Minimum inhibitory concentration (MIC).

Molecules are shown by their SMILES. Converted amounts (≈) assume the structure as drawn.

Take `CCCC(=O)O[C@H]1c2cc(C)cc(O)c2C(=O)C2=C(O)[C@H]3C=C[C@]21Cc1cc2c(c(O)c13)C(=O)C1=C(O)CC[C@H](O)[C@@]1(C(=O)OC)O2` [Compound 1, Xanthoquinodin A11]: the IC50 (as a rule, the concentration at which inhibition is half-maximal) is 1130 nM in [1] (mouse) and 30 to 1460 nM in data set [2]. Also, the MIC in data set [3] came out at 2.1 µg/mL (≈ 3.26 µM); in [4], 0.4 µg/mL (≈ 0.621 µM); in data set [5] it was 4.2 µg/mL (≈ 6.52 µM); in data set [7] it was 66.7 µg/mL (≈ 103 µM). For the same molecule, the “Minimum inhibitory concentration (MIC)” value in data set [6], in data set [8], in data set [9], in data set [10], in data set [11] and in data set [12] was “–” each time. The “Minimum inhibitory concentration (MIC)” value in [13] and in data set [14] was “–” in each case.
In the case of `CCCC(=O)O[C@H]1c2cc(C)cc(O)c2C(=O)C2=C(O)[C@H]3C=C[C@]21Cc1cc(O)c2c(c13)O[C@@]1(C(=O)OC)C(=C(O)CC[C@@H]1O)C2=O` [Compound 2, Xanthoquinodin B10], the IC50 is 60 nM in [1] (setting [15]); 400 nM in data set [1] (human, A549 lung cancer cells); 190 nM in data set [1] (setting [16]); 40 nM in data set [1] (setting [17]); 1060 nM in [1] (setting [18]); 130 nM in [1] (setting [19]). Also, the IC50 in data set [1] (mouse, L929 fibroblasts) was 1460 nM; in data set [2], 30 to 1460 nM. For the same molecule, the results for the MIC in data set [3], in data set [4] and in data set [5] were 2.1 µg/mL (≈ 3.26 µM), 0.4 µg/mL (≈ 0.621 µM) and 2.1 µg/mL (≈ 3.26 µM), respectively. Further, the “Minimum inhibitory concentration (MIC)” value in [6], in data set [7], in [8], in data set [9], in data set [10] and in [11] was “–” in each case. Also, the “Minimum inhibitory concentration (MIC)” value in data set [12], in [13] and in data set [14] was “–” each time.
In the case of `CCCC(=O)O[C@H]1c2cc(C)cc(O)c2C(=O)C2=C(O)[C@H]3C=C[C@]21Cc1cc(O)c2c(c13)O[C@]1(C(=O)OC)C(=C(O)CC[C@@H]1O)C2=O` [Compound 3, Xanthoquinodin B11], the IC50 in data set [1] (setting [15]) stood at 50 nM; in data set [1] (human, A549 lung cancer cells) it was 260 nM; in data set [1] (setting [16]), 150 nM; in data set [1] (setting [17]), 40 nM; in data set [1] (setting [18]), 650 nM; in data set [1] (setting [19]), 150 nM. Further, the IC50 in [1] (mouse, L929 fibroblasts) is 980 nM; in data set [2], 30 to 1460 nM. For the same molecule, the MIC is 1 µg/mL (≈ 1.55 µM) in data set [3]; 0.2 µg/mL (≈ 0.31 µM) in data set [4]; 2.1 µg/mL (≈ 3.26 µM) in [5]; 2.1 µg/mL (≈ 3.26 µM) in data set [7]; 2.1 µg/mL (≈ 3.26 µM) in data set [8]; 66.7 µg/mL (≈ 103 µM) in [9] (setting [20]). Besides, the MIC worked out at 8.3 µg/mL (≈ 12.9 µM) in [10] (Hansenula anomala, read-out: Minimum inhibitory concentration (MIC)) and 16.7 µg/mL (≈ 25.9 µM) in [11] (setting [20]). The “Minimum inhibitory concentration (MIC)” value in [6] is listed as “–”; in data set [7] it was 2.10 µg/mL (≈ 3.26 µM); in [8], 2.10 µg/mL (≈ 3.26 µM); in [10], 8.30 µg/mL (≈ 12.9 µM); in data set [12] it was “–”; in data set [13] it was “–”. For the same molecule, in data set [14], the “Minimum inhibitory concentration (MIC)” value is “–”.
In the case of `CCCC(=O)O[C@H]1c2cc(C)cc(O)c2C(=O)C2=C(O)[C@H]3C=C[C@]21Cc1cc(O)c2c(c13)O[C@@]1(C(=O)OC)C(=C(O)[C@@H](O)C[C@@H]1O)C2=O` [Compound 4, Xanthoquinodin B12], the IC50 was 13500 nM in data set [1] (mouse) and 1030 to 18600 nM in data set [2]. Also, the MIC turned out to be 2.1 µg/mL (≈ 3.18 µM) in data set [3]; 0.8 µg/mL (≈ 1.21 µM) in data set [4]; 2.1 µg/mL (≈ 3.18 µM) in data set [5]; 66.7 µg/mL (≈ 101 µM) in data set [7]; 66.7 µg/mL (≈ 101 µM) in [8]. In addition, the “Minimum inhibitory concentration (MIC)” value in data set [6], in data set [9], in data set [10], in data set [11], in data set [12] and in data set [13] was “–” throughout. In [14], the “Minimum inhibitory concentration (MIC)” value is on record as “–”.
`COC(=O)[C@]12Oc3c(c(O)cc4c3[C@@H]3C=C[C@]5(C4)C(=C3O)C(=O)c3c(O)cc(C)cc3[C@@H]5OC(C)=O)C(=O)C1=C(O)CC[C@@H]2O` [Compound 5, Xanthoquinodin B13]: the IC50 in data set [1] (mouse) was 1120 nM; in data set [2] it was 30 to 1460 nM. Further, the MIC in data set [3] came to 8.3 µg/mL (≈ 13.5 µM); in data set [4], 0.2 µg/mL (≈ 0.324 µM); in data set [5] it was 2.1 µg/mL (≈ 3.41 µM); in data set [7], 66.7 µg/mL (≈ 108 µM). Also, the “Minimum inhibitory concentration (MIC)” value in data set [6], in [8], in data set [9], in data set [10], in [11] and in data set [12] was “–” in each case. Moreover, the “Minimum inhibitory concentration (MIC)” value in data set [13] and in [14] was “–” in each case.
`CNC(C)C1CCC(N)C(OC2C(N)CC(N)C(OC3OCC(C)(O)C(NC)C3O)C2O)O1` (stereo not shown) [gentamicin, reference compound]: the MIC in data set [12] (setting [20]) came to 0.4 µg/mL (≈ 0.838 µM).
For the molecule `NC[C@H]1O[C@H](O[C@H]2[C@H](O)[C@@H](O[C@H]3O[C@H](CO)[C@@H](O)[C@H](N)[C@H]3O)[C@H](N)C[C@@H]2N)[C@H](O)[C@@H](O)[C@@H]1O` [kanamycin, reference compound], the “Minimum inhibitory concentration (MIC)” value in data set [6] is 1.70 ^3 µg/mL.
Regarding `C[C@@H]1[C@H](O)[C@@H](C)/C=C/C=C/CC/C=C/C=C/C=C/C=C/C(O[C@H]2O[C@H](C)[C@@H](O)[C@H](N)[C@@H]2O)CC2O[C@](O)(CC(O)C(O)CCC(O)CC(O)CC(O)CC(=O)O[C@H]1C)CC(O)C2C(=O)O` (stereo partly shown) [nystatin, reference compound], the “Minimum inhibitory concentration (MIC)” value was 33.30 ^1 µg/mL in [7]; 16.70 ^1 µg/mL in [8]; 33.30 ^1 µg/mL in [9]; 33.30 ^1 µg/mL in data set [10]; 33.30 ^1 µg/mL in data set [11].
For the molecule `CN(C)[C@@H]1C(O)=C(C(N)=O)C(=O)[C@@]2(O)C(O)=C3C(=O)c4c(O)cccc4[C@@](C)(O)[C@H]3[C@H](O)[C@@H]12` [oxytetracycline, reference compound], the MIC stood at 0.4 µg/mL (≈ 0.869 µM) in data set [3]; 8.3 µg/mL (≈ 18 µM) in [4]; 0.8 µg/mL (≈ 1.74 µM) in [5]; 0.8 µg/mL (≈ 1.74 µM) in data set [13] (setting [20]); 3.3 µg/mL (≈ 7.17 µM) in data set [14] (setting [20]).

For the origin of these results see paper PMC7712541, “Seven New Cytotoxic and Antimicrobial Xanthoquinodins from Jugulospora vestita” (Journal of Fungi, 2020).
